Measured values taken from article PMC9151520 (Archives of Toxicology, 2022).
Structures can show the parent of a compound that is named as a salt. Where two headings read alike, the source gives them in different places.

Experiments:
[1] = tested on: p53 signaling (p53RE-bla HCT-116 cells); assay: cells; details: Homo sapiens
[2] = tested on: p53 signaling (p53RE-bla HCT-116 cells); assay: cells; type: cell-based; details: for EC50 / Emax: Homo sapiens
[3] = tested on: p53 signaling (p53RE-bla HCT-116 cells)
[4] = tested on: p53 signaling (p53RE-bla HCT-116 cells); remark: listed apart in the source
[5] = HCT-116, read-out: p53 activation EC50, primary screening
[6] = HCT-116, read-out: p53 activation efficacy, primary screening
[7] = HCT-116, read-out: EC50, p53 activation, primary screening
[8] = HCT-116, read-out: EC50, p53 activation, cherry pick confirmation
[9] = HCT-116, read-out: Efficacy, p53 activation, cherry pick confirmation
[10] = HCT-116, read-out: Efficacy, p53 activation, primary screening

Row | Structure (SMILES) | EC50 [1, 5] | Emax [1, 6] | p53 activation EC50, cherry pick confirmation [2] | p53 activation EC50, primary screening [2] | p53 activation efficacy, cherry pick confirmation [2] | p53 activation efficacy, primary screening [2] | p53 activation EC50, cherry pick confirmation [3] | p53 activation EC50, primary screening [3] | p53 activation efficacy, cherry pick confirmation [3] | p53 activation efficacy, primary screening [3] | Viability EC50, cherry pick confirmation (p53RE-bla HCT-116 cells) | Viability EC50, primary screening (p53RE-bla HCT-116 cells) | Viability efficacy, cherry pick confirmation (p53RE-bla HCT-116 cells) | Viability efficacy, primary screening (p53RE-bla HCT-116 cells) | p53 activation EC50, cherry pick confirmation [4] | p53 activation efficacy, cherry pick confirmation [4] | EC50 [1, 7] | EC50 [2, 7] | Emax [2, 9] | EC50, p53 activation, cherry pick confirmation [3] | further results
1 | CN1CCc2cc3c(cc2C1O)OCO3 (stereo not drawn) [Hydrastinine hydrochloride] | 28.6 µM | 56.5% | inactive | inactive | inactive | inactive | inactive | inactive | inactive | inactive | inactive | inactive | inactive | inactive | inactive | inactive | – | – | – | – | –
2 | c1ccc2c(c1)c1cccc3ccc4cccc2c4c31 [Benzo(e)pyrene] | 20.1 µM | 48.3% | inactive | – | inactive | – | inactive | inactive | inactive | inactive | inactive | inactive | inactive | inactive | inactive | inactive | – | – | – | – | EC50 [2, 5]: 36.3 µM; Emax [2, 6]: 104%
3 | O=C1OC(O)C(Cl)=C1Cl (stereo not drawn) [Mucochloric acid] | 49.4 µM | 51.8% | – | inactive | – | inactive | inactive | inactive | inactive | inactive | inactive | inactive | inactive | inactive | inactive | inactive | – | – | – | – | EC50 ([2]; HCT-116, read-out: p53 activation EC50, cherry pick confirmation): 15.9 µM; Emax ([2]; HCT-116, read-out: p53 activation efficacy, cherry pick confirmation): 180%
4 | O=c1[nH]cc(F)c(=O)[nH]1 [5-Fluorouracil] | – | – | – | – | – | – | – | – | – | – | – | – | – | – | – | – | 3.79 µM | 5.93 µM | 98.3% | inactive | EC50 [2, 8]: 21.2 µM; EC50, p53 activation, primary screening [3]: inactive; Efficacy, p53 activation, cherry pick confirmation [3]: inactive; Efficacy, p53 activation, primary screening [3]: inactive; EC50, viability, cherry pick confirmation (p53RE-bla HCT-116 cells): inactive; EC50, viability, primary screening (p53RE-bla HCT-116 cells): inactive; Efficacy, viability, cherry pick confirmation (p53RE-bla HCT-116 cells): inactive; Efficacy, viability, primary screening (p53RE-bla HCT-116 cells): inactive; EC50, p53 activation, cherry pick confirmation [4]: inactive; Efficacy, p53 activation, cherry pick confirmation [4]: inactive
5 | CCCCCCNC(=O)n1cc(F)c(=O)[nH]c1=O [Carmofur] | – | – | – | – | – | – | – | – | – | – | – | – | – | – | – | – | 2.11 µM | 2.97 µM | 121% | inactive | EC50 [2, 8]: 17.8 µM; EC50, p53 activation, primary screening [3]: inactive; Efficacy, p53 activation, cherry pick confirmation [3]: inactive; Efficacy, p53 activation, primary screening [3]: inactive; EC50, viability, cherry pick confirmation (p53RE-bla HCT-116 cells): inactive; EC50, viability, primary screening (p53RE-bla HCT-116 cells): inactive; Efficacy, viability, cherry pick confirmation (p53RE-bla HCT-116 cells): inactive; Efficacy, viability, primary screening (p53RE-bla HCT-116 cells): inactive; EC50, p53 activation, cherry pick confirmation [4]: inactive; Efficacy, p53 activation, cherry pick confirmation [4]: inactive
6 | CC(O)CN(CC(C)O)CC(C)O (stereo not drawn) [Triisopropanolamine] | 37 µM | 40% | inactive | inactive | inactive | inactive | inactive | inactive | inactive | inactive | inactive | inactive | inactive | inactive | inactive | inactive | – | – | – | – | –
7 | O=P(OCC(Br)CBr)(OCC(Br)CBr)OCC(Br)CBr (stereo not drawn) [Tris(2,3-dibromopropyl) phosphate] | 46.6 µM | 38.9% | inactive | inactive | inactive | inactive | inactive | inactive | inactive | inactive | inactive | inactive | inactive | inactive | inactive | inactive | – | – | – | – | –
8 | CCCCOCCOP(=O)(OCCOCCCC)OCCOCCCC [Tris(2-butoxyethyl) phosphate] | 35.1 µM | 48.7% | inactive | inactive | inactive | inactive | inactive | inactive | inactive | inactive | inactive | inactive | inactive | inactive | inactive | inactive | – | – | – | – | –
9 | O=c1[nH]c(=O)n([C@H]2C[C@H](O)[C@@H](CO)O2)cc1F [Floxuridine] | – | – | – | – | – | – | – | – | – | – | – | – | – | – | – | – | 0.326 µM | 0.643 µM | 59.4% | inactive | EC50 [2, 8]: 15.7 µM; EC50, p53 activation, primary screening [3]: inactive; Efficacy, p53 activation, cherry pick confirmation [3]: inactive; Efficacy, p53 activation, primary screening [3]: inactive; EC50, viability, cherry pick confirmation (p53RE-bla HCT-116 cells): inactive; EC50, viability, primary screening (p53RE-bla HCT-116 cells): inactive; Efficacy, viability, cherry pick confirmation (p53RE-bla HCT-116 cells): inactive; Efficacy, viability, primary screening (p53RE-bla HCT-116 cells): inactive; EC50, p53 activation, cherry pick confirmation [4]: inactive; Efficacy, p53 activation, cherry pick confirmation [4]: inactive
10 | COc1cc([C@@H]2c3cc4c(cc3[C@@H](O[C@@H]3O[C@@H]5CO[C@@H](C)O[C@H]5[C@H](O)[C@H]3O)[C@H]3COC(=O)[C@H]23)OCO4)cc(OC)c1O [etoposide, reference compound] | – | – | – | – | – | – | – | – | – | – | – | – | – | – | – | – | 0.888 µM | 1.33 µM | 72.1% | inactive | Emax [1, 9]: 32.9%; Emax [1, 10]: 22.1%; Emax [2, 10]: 62.9%; EC50, p53 activation, primary screening [3]: inactive; Efficacy, p53 activation, cherry pick confirmation [3]: inactive; Efficacy, p53 activation, primary screening [3]: inactive; EC50, viability, cherry pick confirmation (p53RE-bla HCT-116 cells): inactive; EC50, viability, primary screening (p53RE-bla HCT-116 cells): inactive; Efficacy, viability, cherry pick confirmation (p53RE-bla HCT-116 cells): inactive; Efficacy, viability, primary screening (p53RE-bla HCT-116 cells): inactive; p53 induction in the presence of microsomes compared with absence of microsomes [4]: inactivity or lower activity
